Measured values: patent publication US20090312306A1, “TETRAHYDRO-5H-PYRIDO[2,3-D]AZEPINES AS 5-HT2C LIGANDS” (priority 2006, published 2009)

target: h5-HT2c (vsv) (Homo sapiens, UniProt P28335, I156V/I160V/N158S); experiment: cell-based
Sequence (P28335 33-458 I156V/N158S/I160V limits assumed): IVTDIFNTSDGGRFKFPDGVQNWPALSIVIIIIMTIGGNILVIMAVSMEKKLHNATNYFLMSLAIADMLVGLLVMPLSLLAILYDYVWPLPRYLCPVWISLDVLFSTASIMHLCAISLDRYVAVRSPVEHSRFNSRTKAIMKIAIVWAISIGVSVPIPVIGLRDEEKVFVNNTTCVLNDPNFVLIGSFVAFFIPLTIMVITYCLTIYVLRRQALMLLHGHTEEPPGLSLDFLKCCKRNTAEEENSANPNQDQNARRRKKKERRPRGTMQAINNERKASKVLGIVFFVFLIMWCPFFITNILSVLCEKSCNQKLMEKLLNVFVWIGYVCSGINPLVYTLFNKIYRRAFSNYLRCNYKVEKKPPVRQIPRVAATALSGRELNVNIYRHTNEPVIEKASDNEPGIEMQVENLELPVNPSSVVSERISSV

Structure (SMILES) | EC50
C=C(C)c1ccc2c(n1)CCNCC2 | 79.1 nM
CN(C)c1ccc2c(n1)CCNCC2 | 213 nM
CC(C)c1ccc2c(n1)C(C)CNCC2 (stereo not drawn) | 295 nM
CCN(C)c1ccc2c(n1)CCNCC2 | 18 nM
CCN(CC)c1ccc2c(n1)CCNCC2 | 77.3 nM
c1cc2c(nc1N1CCCCC1)CCNCC2 | 10.6 nM
c1cc2c(nc1N1CCOCC1)CCNCC2 | 63.9 nM
COc1nc2c(cc1Br)CCNCC2 | 64.1 nM
c1cc2c(nc1N1CCCCCC1)CCNCC2 | 10.2 nM
CC(C)(C)c1ccc2c(n1)CCNCC2 | 106 nM
c1cc2c(nc1N1CCCNCC1)CCNCC2 | 262 nM
CCN(C)c1nc2c(cc1Br)CCNCC2 | 100 nM
Brc1cc2c(nc1N1CCCCC1)CCNCC2 | 192 nM
CCN(C)c1ccc2c(n1)C(C)CNCC2 (stereo not drawn) | 29.2 nM
CC1CNCCc2ccc(N3CCCCC3)nc21 (stereo not drawn) | 13.1 nM
CC1CNCCc2ccc(N3CCOCC3)nc21 (stereo not drawn) | 47.7 nM
c1cc2c(nc1N1CCC3(CC1)OCCO3)CCNCC2 | 290 nM
CC(C)C1CNCCc2ccc(N3CCCCC3)nc21 (stereo not drawn) | 65.4 nM
CC(C)C1CNCCc2ccc(N3CCCCCC3)nc21 (stereo not drawn) | 139 nM
CC1CNCCc2ccc(N3CCCCCC3)nc21 (stereo not drawn) | 6.2 nM
O=C1CCN(c2ccc3c(n2)CCNCC3)CC1 | 299 nM

Structure (SMILES) | EC50
CC(C)N(C)c1ccc2c(n1)CCNCC2 | 85.4 nM
FC1(F)CCN(c2ccc3c(n2)CCNCC3)CC1 | 11.4 nM
FC1CCN(c2ccc3c(n2)CCNCC3)CC1 | 7.9 nM
c1cc2c(nc1N1CCSCC1)CCNCC2 | 2.3 nM
c1cc2c(nc1N1CCCOCC1)CCNCC2 | 10.5 nM
Clc1cc2c(nc1N1CCCCC1)CCNCC2 | 74.2 nM
Clc1cc2c(nc1N1CCOCC1)CCNCC2 | 176 nM
CCC1CNCCc2ccc(N(C)CC)nc21 (stereo not drawn) | 35.9 nM
CCC1CNCCc2ccc(N3CCCCC3)nc21 (stereo not drawn) | 16.4 nM
CCC1CNCCc2ccc(N3CCOCC3)nc21 (stereo not drawn) | 101 nM
CCN(C)c1ccc2c(n1)[C@H](C)CNCC2 | 8.3 nM
C[C@@H]1CNCCc2ccc(N3CCCCC3)nc21 | 2.1 nM
C[C@@H]1CNCCc2ccc(N3CCOCC3)nc21 | 58.1 nM
c1cc2c(nc1N1C3CCCC1CC3)CCNCC2 | 138 nM
FC1(F)CCCN(c2ccc3c(n2)CCNCC3)CC1 | 24 nM
[O-][S+]1CCN(c2ccc3c(n2)CCNCC3)CC1 | 5.1 nM
CC1CNCCc2ccc(N3CCC(F)(F)CC3)nc21 (stereo not drawn) | 29.4 nM
CC1CNCCc2ccc(N3CCC(F)CC3)nc21 (stereo not drawn) | 13.6 nM
CC1CNCCc2ccc(N3CCCOCC3)nc21 (stereo not drawn) | 21.7 nM
FC1CCN(c2nc3c(cc2Cl)CCNCC3)CC1 | 95.8 nM
Clc1cc2c(nc1N1CCCOCC1)CCNCC2 | 67.8 nM
